Measurements from patent publication US11911346B2, “Orally administrated therapeutic for treating mild cognitive impairment (MCI) and improving human cognitive function” (BrainCare LLC, priority 2021, dated 2024).

Test system: cognitive function of participants with Subjective Cognitive Decline
Assay: Cognitive Failures Questionnaire (CFQ), 8-week randomized study of one or two BCP capsules daily
Format: in vivo, human
Conditions: for CFQ score: Do you bump into people? / CFQ score: Do you confuse left and right when giving people directions? / CFQ score: Do you daydream when you ought to be listening to something? / CFQ score: Do you fail to hear people speaking to you when you are doing something? / CFQ score: Do you fail to listen to people's names when you are meeting them for the first time? / CFQ score: Do you fail to notice signposts on the road? / CFQ score: Do you fail to see what you want in a supermarket (although it's there)? / CFQ score: Do you find that you drop things? / CFQ score: Do you find that you forget appointments? / CFQ score: Do you find you accidentally misplace things like placing the fruit in the cupboard and the bowl in the refrigerator? / CFQ score: Do you find you can't quite remember something although it's “on the tip of your tongue”? / CFQ score: Do you find you can't think of anything to say? / CFQ score: Do you find you forget people's names? / CFQ score: Do you find you forget what you came to the store to buy? / CFQ score: Do you find you forget whether you've turned off a light or locked the door? / CFQ score: Do you find you forget which way to turn on a road you know well but rarely use? / CFQ score: Do you find you forget why you went from one place of the house to the other? / CFQ score: Do you find yourself suddenly wondering if you used a word correctly? / CFQ score: Do you forget where you put something like a newspaper or a book? / CFQ score: Do you have trouble making up your mind? / CFQ score: Do you lose track of paying bills? / CFQ score: Do you lose your temper and regret it? / CFQ score: Do you read something and find you haven't been thinking about it and must read it again? / CFQ score: Do you say something and realize afterwards that it might be taken as an insult? / CFQ score: Do you start doing one thing at home and get distracted and do something else (unintentionally)? / Distractibility summed sub-score of CFQ / False triggering summed sub-score of CFQ / Forgetfulness summed sub-score of CFQ / Total CFQ summed sub-score: lower is better
[1] = one capsule daily (90 mg BCP), week 4
[2] = one capsule daily (90 mg BCP), week 8
[3] = two capsules daily (180 mg BCP), week 4

## C=C1CC/C=C(\C)CC[C@@H]2[C@@H]1CC2(C)C [BCP, beta-caryophyllene]
[1]
  CFQ % better vs. baseline: Do you bump into people?: 29% better
  CFQ % better vs. baseline: Do you daydream when you ought to be listening to something?: 16% better
  CFQ % better vs. baseline: Do you fail to hear people speaking to you when you are doing something?: 15% better
  CFQ % better vs. baseline: Do you fail to notice signposts on the road?: 17% better
  CFQ % better vs. baseline: Do you fail to see what you want in a supermarket (although it's there)?: 14% better
  CFQ % better vs. baseline: Do you find that you drop things?: 14% better
  CFQ % better vs. baseline: Do you find you accidentally misplace things like placing the fruit in the cupboard and the bowl in the refrigerator?: 17% better
  CFQ % better vs. baseline: Do you find you can't quite remember something although it's “on the tip of your tongue”?: 12% better
  CFQ % better vs. baseline: Do you find you can't think of anything to say?: 15% better
  CFQ % better vs. baseline: Do you find you forget people's names?: 12% better
  CFQ % better vs. baseline: Do you find you forget what you came to the store to buy?: 12% better
  CFQ % better vs. baseline: Do you find you forget whether you've turned off a light or locked the door?: 11% better
  CFQ % better vs. baseline: Do you find you forget which way to turn on a road you know well but rarely use?: 27% better
  CFQ % better vs. baseline: Do you find yourself suddenly wondering if you used a word correctly?: 14% better
  CFQ % better vs. baseline: Do you have trouble making up your mind?: 13% better
  CFQ % better vs. baseline: Do you lose track of paying bills?: 23% better
  CFQ % better vs. baseline: Do you read something and find you haven't been thinking about it and must read it again?: 11% better
  CFQ % better vs. baseline: Do you say something and realize afterwards that it might be taken as an insult?: 28% better
  CFQ % worse vs. baseline: Do you confuse left and right when giving people directions?: 17% worse
  CFQ % worse vs. baseline: Do you find that you forget appointments?: 25% worse
  CFQ change vs. baseline: Do you fail to listen to people's names when you are meeting them for the first time?: No change
  CFQ change vs. baseline: Do you lose your temper and regret it?: No change
  CFQ change vs. baseline: Do you start doing one thing at home and get distracted and do something else (unintentionally)?: no change
  CFQ score: Do you bump into people?: 0.5 ± 0.6
  CFQ score: Do you confuse left and right when giving people directions?: 0.7 ± 1.0
  CFQ score: Do you daydream when you ought to be listening to something?: 1.6 ± 0.8
  CFQ score: Do you fail to hear people speaking to you when you are doing something?: 1.7 ± 0.9
  CFQ score: Do you fail to listen to people's names when you are meeting them for the first time?: 2.2 ± 1.1
  CFQ score: Do you fail to notice signposts on the road?: 1.0 ± 0.7
  CFQ score: Do you fail to see what you want in a supermarket (although it's there)?: 1.2 ± 0.7
  CFQ score: Do you find that you drop things?: 1.2 ± 0.9
  CFQ score: Do you find that you forget appointments?: 1.0 ± 0.7
  CFQ score: Do you find you accidentally misplace things like placing the fruit in the cupboard and the bowl in the refrigerator?: 1.0 ± 0.8
  CFQ score: Do you find you can't quite remember something although it's “on the tip of your tongue”?: 2.3 ± 0.8
  CFQ score: Do you find you can't think of anything to say?: 1.1 ± 0.8
  CFQ score: Do you find you forget people's names?: 2.2 ± 1.0
  CFQ score: Do you find you forget what you came to the store to buy?: 1.5 ± 0.8
  CFQ score: Do you find you forget whether you've turned off a light or locked the door?: 1.6 ± 0.8
  CFQ score: Do you find you forget which way to turn on a road you know well but rarely use?: 0.8 ± 0.7
  CFQ score: Do you find you forget why you went from one place of the house to the other?: 1.7 ± 0.6
  CFQ score: Do you find yourself suddenly wondering if you used a word correctly?: 1.2 ± 0.8
  CFQ score: Do you forget where you put something like a newspaper or a book?: 1.8 ± 0.9
  CFQ score: Do you have trouble making up your mind?: 1.3 ± 0.7
  CFQ score: Do you lose track of paying bills?: 1.0 ± 0.8
  CFQ score: Do you lose your temper and regret it?: 1.1 ± 0.7
  CFQ score: Do you read something and find you haven't been thinking about it and must read it again?: 1.7 ± 0.9
  CFQ score: Do you say something and realize afterwards that it might be taken as an insult?: 1.1 ± 1.0
  CFQ score: Do you start doing one thing at home and get distracted and do something else (unintentionally)?: 2.3 ± 0.8
  Distractibility summed sub-score of CFQ: 11 ± 4
  False triggering summed sub-score of CFQ: 9 ± 4
  Forgetfulness summed sub-score of CFQ: 14 ± 5
  Total CFQ summed sub-score: 34 ± 10
[2]
  CFQ % better vs. baseline: Do you daydream when you ought to be listening to something?: 11% better
  CFQ % better vs. baseline: Do you fail to hear people speaking to you when you are doing something?: 20% better
  CFQ % better vs. baseline: Do you fail to listen to people's names when you are meeting them for the first time?: 14% better
  CFQ % better vs. baseline: Do you fail to notice signposts on the road?: 17% better
  CFQ % better vs. baseline: Do you fail to see what you want in a supermarket (although it's there)?: 7% better
  CFQ % better vs. baseline: Do you find that you drop things?: 14% better
  CFQ % better vs. baseline: Do you find you accidentally misplace things like placing the fruit in the cupboard and the bowl in the refrigerator?: 25% better
  CFQ % better vs. baseline: Do you find you forget people's names?: 12% better
  CFQ % better vs. baseline: Do you find you forget what you came to the store to buy?: 18% better
  CFQ % better vs. baseline: Do you find you forget whether you've turned off a light or locked the door?: 17% better
  CFQ % better vs. baseline: Do you find you forget which way to turn on a road you know well but rarely use?: 27% better
  CFQ % better vs. baseline: Do you find yourself suddenly wondering if you used a word correctly?: 14% better
  CFQ % better vs. baseline: Do you have trouble making up your mind?: 7% better
  CFQ % better vs. baseline: Do you lose track of paying bills?: 15% better
  CFQ % better vs. baseline: Do you lose your temper and regret it?: 9% better
  CFQ % better vs. baseline: Do you read something and find you haven't been thinking about it and must read it again?: 16% better
  CFQ % better vs. baseline: Do you say something and realize afterwards that it might be taken as an insult?: 20% better
  CFQ % better vs. baseline: Do you start doing one thing at home and get distracted and do something else (unintentionally)?: 4% better
  CFQ % worse vs. baseline: Do you confuse left and right when giving people directions?: 17% worse
  CFQ % worse vs. baseline: Do you find that you forget appointments?: 13% worse
  CFQ change vs. baseline: Do you bump into people?: No change
  CFQ change vs. baseline: Do you find you can't think of anything to say?: no change
  CFQ score: Do you bump into people?: 0.7 ± 0.6
  CFQ score: Do you confuse left and right when giving people directions?: 0.7 ± 0.9
  CFQ score: Do you daydream when you ought to be listening to something?: 1.7 ± 0.9
  CFQ score: Do you fail to hear people speaking to you when you are doing something?: 1.6 ± 0.9
  CFQ score: Do you fail to listen to people's names when you are meeting them for the first time?: 1.9 ± 1.2
  CFQ score: Do you fail to notice signposts on the road?: 1.0 ± 0.8
  CFQ score: Do you fail to see what you want in a supermarket (although it's there)?: 1.3 ± 0.9
  CFQ score: Do you find that you drop things?: 1.2 ± 0.7
  CFQ score: Do you find that you forget appointments?: 0.9 ± 0.8
  CFQ score: Do you find you accidentally misplace things like placing the fruit in the cupboard and the bowl in the refrigerator?: 0.9 ± 0.7
  CFQ score: Do you find you can't quite remember something although it's “on the tip of your tongue”?: 2.1 ± 0.7
  CFQ score: Do you find you can't think of anything to say?: 1.3 ± 0.8
  CFQ score: Do you find you forget people's names?: 2.2 ± 0.8
  CFQ score: Do you find you forget what you came to the store to buy?: 1.4 ± 0.8
  CFQ score: Do you find you forget whether you've turned off a light or locked the door?: 1.5 ± 0.7
  CFQ score: Do you find you forget which way to turn on a road you know well but rarely use?: 0.8 ± 0.7
  CFQ score: Do you find you forget why you went from one place of the house to the other?: 1.7 ± 0.6
  CFQ score: Do you find yourself suddenly wondering if you used a word correctly?: 1.2 ± 0.7
  CFQ score: Do you forget where you put something like a newspaper or a book?: 1.8 ± 0.7
  CFQ score: Do you have trouble making up your mind?: 1.4 ± 0.9
  CFQ score: Do you lose track of paying bills?: 1.1 ± 0.8
  CFQ score: Do you lose your temper and regret it?: 1.0 ± 0.6
  CFQ score: Do you read something and find you haven't been thinking about it and must read it again?: 1.6 ± 0.9
  CFQ score: Do you say something and realize afterwards that it might be taken as an insult?: 1.2 ± 0.7
  CFQ score: Do you start doing one thing at home and get distracted and do something else (unintentionally)?: 2.2 ± 0.6
  Distractibility summed sub-score of CFQ: 11 ± 3
  False triggering summed sub-score of CFQ: 9 ± 4
  Forgetfulness summed sub-score of CFQ: 13 ± 5
  Total CFQ summed sub-score: 33 ± 11
[3]
  CFQ % better vs. baseline: Do you bump into people?: 14% better
  CFQ % better vs. baseline: Do you confuse left and right when giving people directions?: 22% better
  CFQ % better vs. baseline: Do you daydream when you ought to be listening to something?: 28%
  CFQ % better vs. baseline: Do you fail to hear people speaking to you when you are doing something?: 12% better
  CFQ % better vs. baseline: Do you fail to listen to people's names when you are meeting them for the first time?: 22% better
  CFQ % better vs. baseline: Do you fail to notice signposts on the road?: 30% better
  CFQ % better vs. baseline: Do you fail to see what you want in a supermarket (although it's there)?: 15% better
  CFQ % better vs. baseline: Do you find that you drop things?: 27% better
  CFQ % better vs. baseline: Do you find that you forget appointments?: 30% better
  CFQ % better vs. baseline: Do you find you accidentally misplace things like placing the fruit in the cupboard and the bowl in the refrigerator?: 13% better
  CFQ % better vs. baseline: Do you find you can't quite remember something although it's “on the tip of your tongue”?: 20%
  CFQ % better vs. baseline: Do you find you can't think of anything to say?: 27% better
  CFQ % better vs. baseline: Do you find you forget people's names?: 20% better
  CFQ % better vs. baseline: Do you find you forget what you came to the store to buy?: 33% better
  CFQ % better vs. baseline: Do you find you forget whether you've turned off a light or locked the door?: 45%
  CFQ % better vs. baseline: Do you find you forget which way to turn on a road you know well but rarely use?: 33% better
  CFQ % better vs. baseline: Do you find you forget why you went from one place of the house to the other?: 39%
